# “Also recorded” adds a separate entry of the source.
# Assays:
# [1] = target: Recombinant full-length Sirt1 (human) (UniProt Q96EB6); test: cross-linking
# recombinant Sirt1 = test: inhibition/competition of p53 ABP labeling of recombinant Sirt1; type: binding, human
# Sirt1 = conditions: ref [17]; cited from earlier work
# [2] = tested on: Sirt1 (overexpressed) in HEK293T lysates; test: p53 ABP labeling of Sirt1 in HEK293T lysates overexpressing Sirt1; type: binding; conditions: 500 μM inhibitor; 5 μM p53 ABP, 50 μg lysate, 500 μM NAD^+
# Sirt2 = conditions: cited from earlier work
# Chain of UniProt Q96EB6 (Q96EB6 whole entry): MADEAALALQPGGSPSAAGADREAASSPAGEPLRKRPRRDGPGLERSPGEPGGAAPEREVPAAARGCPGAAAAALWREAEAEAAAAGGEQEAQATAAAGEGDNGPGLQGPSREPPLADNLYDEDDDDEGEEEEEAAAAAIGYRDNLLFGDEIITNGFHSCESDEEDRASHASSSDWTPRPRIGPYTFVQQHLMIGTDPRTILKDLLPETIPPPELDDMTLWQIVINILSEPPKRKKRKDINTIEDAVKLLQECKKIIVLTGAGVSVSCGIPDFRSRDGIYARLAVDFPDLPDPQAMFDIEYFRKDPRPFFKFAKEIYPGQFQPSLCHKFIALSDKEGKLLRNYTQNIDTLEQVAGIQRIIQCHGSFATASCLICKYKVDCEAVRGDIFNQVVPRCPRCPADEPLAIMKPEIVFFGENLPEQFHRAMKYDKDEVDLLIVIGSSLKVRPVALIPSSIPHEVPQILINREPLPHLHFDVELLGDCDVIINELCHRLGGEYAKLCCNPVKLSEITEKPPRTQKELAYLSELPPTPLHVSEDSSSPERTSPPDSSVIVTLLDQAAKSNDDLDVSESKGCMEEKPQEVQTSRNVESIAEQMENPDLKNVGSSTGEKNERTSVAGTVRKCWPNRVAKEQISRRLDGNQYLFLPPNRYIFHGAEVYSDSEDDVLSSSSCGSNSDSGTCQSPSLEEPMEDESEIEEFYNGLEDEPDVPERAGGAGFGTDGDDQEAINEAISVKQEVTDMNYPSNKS
molecule,measurement,setting,value
"8-mer thioacetyl-lysine p53 peptide, (diazirine)-RHKK(thioacetyl)LMF-(propargylglycine)-NH2",fold increase of labelling with NAD+ over without NAD+,[1],4 fold
"N[C@@H](CCC(=O)N[C@@H](CSN=O)C(=O)NCC(=O)O)C(=O)O [GSNO, S-nitrosoglutathione]","effect on p53 ABP labeling of recombinant Sirt1, GSNO pretreatment","recombinant Sirt1; 100 μM GSNO, presence and absence of 500 μM NAD^+",A dramatic loss of Sirt1 labeling
same,Sirt1 deacetylase activity upon S-nitrosation,Sirt1,complete loss of deacetylase activity
Cc1cc(C)nc(SCC(=O)Nc2ncc(Cc3cccc4ccccc34)s2)n1 [SirReal2],change of p53 ABP labeling of Sirt1,[2],no reduction in activity-based labeling of Sirt1; also recorded: a slight increase in activity-based labeling of Sirt1
same,Sirt2 selectivity of SirReal2,Sirt2; ref [48],Sirt2-selective
CCCCCCCCCCCCCC(=S)NCCCCC(NC(=O)OCc1ccccc1)C(=O)Nc1ccccc1 (centres unmarked) [TM],change of p53 ABP labeling of Sirt1,[2],no reduction in activity-based labeling of Sirt1
same,Sirt2 selectivity of TM,Sirt2; ref [22],Sirt2-selective
H2N-RHKK(trifluoroacetyl)LMF-NH2 [p53tfa],concentration needed to compete with p53 ABP labeling versus Kd,"recombinant Sirt1; 0.2–500 μM, competitor reversible, p53 ABP labeling covalent and irreversible",exceeds the Kd values

# — PMC7686039 (Bioorganic chemistry, 2020)
